Common to all, as to format: in vivo, SD rats
Data set [1] relates to pulmonary arterial hypertension (PAH) models. In words: PAH model, blood flow and blood pressure measurement. The settings on record: MCT + Sildenafil 25 mpk, orally every day, 3 weeks. An excerpt:
(§1) To induce PAH in 7-week-old SD rats (Oriental Bio), 60 mpk of MCT (monocrotaline) were subcutaneously injected. Thereafter, the rats were divided into four groups (tested with five animals in each group), and were administrated with 1mpk of Mock human IgG (Thermo Fisher Scientific, negative control), 1mpk of N3 IgG antibody, 10mpk of N3 IgG antibody, and 25 mpk of sildenafil (positive control) for 3 weeks. All antibodies were i.v. injected twice a week and sildenafil was orally administered every day.
After three weeks, the rats were anesthetized with isoflurane, and blood flow and pressure were measured using an MPVS Cardiovascular Pressure and Volume system (model name: MPVS Ultra, manufacturer: Millar Instruments). The right ventricular end-systolic pressure (RVESP), right ventricular end-diastolic pressure, left ventricular end-systolic pressure, left ventricular end-diastolic pressure were measured using an exclusive catheter (Mikro-Tip rat pressure catheter, manufacturer: Millar Instruments). The cardiac output was measured using a perivascular blood flow probe (Transonic Flow probes, manufacturer: […]), and experimental method thereof was performed by the same method as disclosed in the following literature: Pacher P, Nagayama T, Mukhopadhyay P, Batkai S, Kass DA. Measurement of cardiac function using pressure-volume conductance catheter technique in mice and rats. Nat Protoc 2008; 3 (9): 1422-34.

Data set [2] has the same test system. In words: PAH model, echocardiography. The settings on record: MCT PAH rats.
Text: as §1

Data set [3] in a line: PAH model, body weight and abnormal signs. The settings on record: MCT + Sildenafil.
Text: as §1

This is an account of results in patent US12679903B2, “Antibody for specifically binding to lysyl-tRNA synthetase N-terminal domain exposed to extracellular membrane” (Zymedi Co., Ltd., priority 2018, dated 2026).

For `CCCc1nn(C)c2c(=O)[nH]c(-c3cc(S(=O)(=O)N4CCN(C)CC4)ccc3OCC)nc12` [Sildenafil, sildenafil], in data set [1], the CO stood at 49.6 ± 17.7 mL/min, the LVEDP was 3.6 ± 2.3 mmHg, the LVESP worked out at 83.2 ± 4.7 mmHg and the RVEDP stood at 2.6 ± 1.3 mmHg. Also, in data set [1], the RVESP is 48.4 ± 9.6 mmHg. Moreover, in data set [2], the “D-shaped left ventricle indicating pressure overload in the right ventricle” value is “three animals”. In data set [3], the “body weight, Absolute change” value was determined as 104.1 ± 26.4 g and the “body weight, Relative change” value is 49.8 ± 10.5%.
